Our source for the melting point values is a melting point compilation (Tetko et al.; mined from patent text by program, amines drawn as free bases though some values may be those of a salt).

Structures are written as SMILES.

By melting point is commonly meant the temperature of the solid-liquid transition. `CCCCCCCCCCCCC#CCC(COC(C)=O)(COC(C)=O)NC(C)=O` showed a melting point of 95.5 to 96.5 °C. To `CC(=O)n1c2ccc(O)cc2c2c3c(c(-c4ccccc4Cl)cc21)C(=O)NC3=O` belongs 258 to 261 °C; to `CCCCCCCCCCCC/C(=C\C=C\C(=O)O)c1ccc(OC)cc1`, 85 to 88 °C. To `O=C(CCCl)c1ccc2c(c1)CCC2` belongs 63.5 to 65.1 °C; to `CCCCCCCCCOc1ccc(F)c(C(N)=O)c1Cl`, 64 to 66 °C.

`CC1=C(C(=O)OC(C)(C)C)C(c2ccc(F)cc2)C(C(=O)OC(C)(C)C)=C(C)N1` came in with a melting point of 149 to 150 °C. The result for `CCCCNS(=O)(=O)CC(O)(CCCC)C(N)C(O)CC1CCCCC1` (stereo unspecified) reads 164 to 165 °C; that for `CCOC(=O)C1=C(C)NC(C=O)=C(C(=O)OCC)C1c1cccc([N+](=O)[O-])c1` (stereo unspecified), 130 to 133 °C; that for `Cc1ccc(C2COc3c(C)c(C)c(NCc4ccccc4)c(C)c32)nc1` (stereo unspecified), 104 to 105 °C.

`CN(C(=O)CN1C(=O)C(NC(=O)Nc2cccc(N)c2)N=C(CN2CCOCC2)c2ccccc21)c1ccccc1` (stereo unspecified) had a melting point of 158 to 160 °C. On to `CC(C#N)c1ccc(O)cc1` (stereo unspecified), for which the melting point fell in the range of 41 to 46 °C. Molecule `CCNC(=O)c1nc(Cl)c(Cl)[nH]1` came in with a melting point of 146 °C. The result for `O=C(C=Cc1c(Cl)cccc1Cl)N1CCc2c([nH]c3ccccc23)C1c1ccc2c(c1)OCO2` (stereo unspecified) reads 118 to 120 °C; that for `Cn1ncc(C(=O)N2CCOCC2)c1C(=O)Nc1ccn2nc(-c3cccc(F)c3)nc2c1`, 212 to 214 °C.

Molecule `Cc1cc2c(cc1OCc1ccccc1)OC[C@@H](N1CCC(O)(c3ccc(F)cc3)CC1)[C@H]2O` (relative stereo) had a melting point of 201 to 202 °C. To `CCCCc1nc(C)c(CC(=S)N2CCC2)c(=O)n1Cc1ccc(-c2ccccc2-c2nnn[nH]2)cc1` belongs 92.4 to 93.8 °C.
